Experimental data from article PMC5722265, “Leishmanicidal compounds of Nectria pseudotrichia, an endophytic fungus isolated from the plant Caesalpinia echinata (Brazilwood)” (Memórias do Instituto Oswaldo Cruz, 2018).
Converted amounts (≈) assume the structure as drawn. Where two headings read alike, the source gives them in different places.

How the values were obtained:
[1] = system: amastigote forms of L. (V.) braziliensis strain MHOM/BR/75/M2903; design: method as in de Morais-Teixeira et al. 2014; conditions: different time periods of drug exposure (three, five, and seven days); ref de Morais-Teixeira et al. 2014; cited from earlier work
[2] = system: intracellular amastigote forms of Leishmania (Viannia) braziliensis; test: Antileishmanial assay on intracellular amastigotes of L. (V.) braziliensis LUC (firefly luciferase reporter) in THP-1 macrophages; type: cell-based; conditions: for activity against amastigote forms of L. (V.) braziliensis (in words): L. (V.) braziliensis expressing firefly luciferase; for IC50: Leishmania braziliensis, intracellular amastigotes in THP-1 macrophages, luciferase activity, 72 h
Experimental: Assays with L. (V.) braziliensis - L. (V.) braziliensis (strain MHOM/BR/1994/H3227) promastigotes were maintained in minimum essential culture medium (α-MEM) (Gibco/Brl, Grand Island, NY, USA) supplemented with 10% (v/v) heat inactivated foetal bovine serum (FBS, Cultilab, Campinas, SP, Brazil), […] kanamycin, […] ampicillin, 2 mm L-glutamine, 5 mg/mL hemin, and 5 mm biopterin (Sigma-Aldrich, St. Louis, USA), at pH 7.0 and incubated at 25°C.
For this assay, we used L. (V.) braziliensis LUC expressing firefly luciferase as a reporter gene. The transfection was performed as previously described ([Roy et al. 2000]). Human monocyte-derived macrophage cell line, THP-1, was maintained in RPMI 1640 medium supplemented with 10% FBS and differentiated in the presence of 20 ng/mL phorbol myristate for 72 h at 37°C. Cells were infected with L. (V.) braziliensis LUC promastigotes at a parasite/macrophage ratio of 10:1 for 3 h in a white walled 96-well tissue culture plate. Non-internalised parasites were removed by five washes with HEPES/NaCl buffer (20 mm HEPES, 0.15 M NaCl, 10 mm glucose, pH 7.2). The infected cells were then treated with 1.5-200.0 µg/mL of sample-tests and 0.006-0.8 µM of amphotericin B (positive control). After 72 h, RPMI was aspirated and luciferase activity was assessed by adding 20 µL reconstituted One-Glo™ Luciferase Assay system solution as enzyme substrate, following the manufacturer's instructions (Promega, Madison, WI, USA). Luciferase activity was measured by luminescence detection in a SpectraMax M5 luminometer (Molecular Devices, Sunnyvale, CA, USA) using 1 s integration/well. Non-infected THP-1 macrophages were used as signal background while non-treated infected THP-1 macrophages were used as control for growth comparison. Antileishmanial activity was expressed as the concentration required to inhibit 50% of parasite growth, as calculated by sigmoidal regression analyses using GraphPad Prism (Version 6.0c, GraphPad Software Inc., La Jolla, CA, USA).

Vero cells = test: Cytotoxicity assay using Vero cells, MTT; type: cell-based, African green monkey; conditions: for IC50: Chlorocebus sabaeus, Vero, 72 h, read-out: Vero IC50; for toxicity to Vero cells (in words): concentration range tested; for selectivity index (SI): IC50 Vero cells/IC50 L. (V.) braziliensis
Experimental: Cytotoxicity assay using Vero cells - African green monkey kidney cells (Vero) were used as model of normal cells and were provided by Erna Kroon (Federal University of Minas Gerais, Brazil). The cells were maintained in DMEM medium (Sigma-Aldrich), containing 5% FBS (Gibco/Brl), enriched with 1% antibiotic solution (100 IU/mL penicillin and 100 µg/mL streptomycin, Gibco/Brl). Vero cells were inoculated in 96 well plates at 1 × 10^4 cells/well and the plates incubated for 24 h at 37°C. The samples and amphotericin B (positive control) were dissolved in DMSO (Sigma-Aldrich). […] All cell cultures were incubated in a 5% CO2/95% humidified air atmosphere at 37°C for 72 h. Wells with 0.5% v/v DMSO were used as a negative control. All medium and reagents used in the assays were endotoxin free. Cell viability was estimated by measuring the mitochondrial reduction of MTT ([Monks et al. 1991]). The samples were tested in triplicate in two independent experiments. The results were expressed as percentage of viability in relation to the negative control (DMSO, 0.5% v/v), calculated as follows: percentage of cell viability (%) = [(treated mean OD / negative control) x 100] and obtained from two independent experiments performed in triplicate. The IC50 values were calculated by non-linear regression using GraphPad Prism® Version 5.01 software. The selective index (SI) was calculated by dividing IC50 Vero cells/IC50 L. (V.) braziliensis.

THP-1 cells = test: Toxicity on host THP-1 macrophages, MTT; type: cell-based; conditions: for IC50: Homo sapiens, read-out: THP-1 IC50; for toxicity to THP-1 cells (in words): concentration range tested
Experimental: To assess toxicity of the compounds on the host cells, THP-1 macrophages were seeded in 96-well plates at a density of 2 × 10^5 cells per well, differentiated in the presence of 20 ng/mL phorbol myristate for 72 h at 37°C, and treated with 1.5-200.0 µg/mL of the compounds or 1.5-200.0 μM of Amphotericin B. After 72 h treatment with compounds, cell death was estimated using MTT, which is metabolised by viable cells resulting in a purple product that can be quantified using a spectrophotometer (absorbance at 570 nm). The results were calculated from the absorbance measurements using the percentage of cell death in relation to the untreated cell controls.

[3] = system: Leishmania promastigotes and intracellular amastigotes in macrophages; design: method as in Roy et al. (2014); conditions: ref Roy et al. (2014); cited from earlier work
tumour xenographs = system: tumour xenographs; design: method as in Rahier et al. (2015); conditions: ref Rahier et al. (2015); cited from earlier work
[4] = system: BC-1 human breast cancer cells; design: method as in Anderson et al. 1985; conditions: ref Anderson et al. 1985; cited from earlier work
A549 cells = system: A549 cells; design: method as in Calcul et al. 2013; conditions: at 25 nM; ref Calcul et al. 2013; cited from earlier work
[5] = system: Plasmodium falciparum (3D7); design: method as in Calcul et al. 2013; conditions: at 25 nM; ref Calcul et al. 2013; cited from earlier work
KB cells = system: KB cells; design: method as in Anderson et al. 1985; conditions: human mouth epidermoid carcinoma; ref Anderson et al. 1985; cited from earlier work
[6] = design: method as in DrugBank Database, DrugBank Version 5.0; conditions: Experimental property; ref DrugBank Database, DrugBank Version 5.0; cited from earlier work
[7] = system: L. amazonensis promastigotes; design: method as in Brissow et al. 2017; conditions: ref Brissow et al. 2017; cited from earlier work

Compound	IC50 [1] [µM]	IC50 [2] [µM]	IC50 (Vero cells; MTT) [µM]	IC50 (THP-1 cells; THP-1, MTT, 72 h) [µM]	other results
NC[C@@H]1O[C@H](O[C@H]2[C@@H](O)[C@H](O[C@@H]3[C@@H](O)[C@H](N)C[C@H](N)[C@H]3O[C@H]3O[C@H](CO)[C@@H](O)[C@H](O)[C@H]3N)O[C@@H]2CO)[C@H](N)[C@@H](O)[C@@H]1O [paromomycin]	234 to 344	–	–	–	–
CC(C)C1CCC2(O)COC(=O)C2C1C=C(CO)C(=O)O (stereo not shown) [Compound 5, hydroheptelidic acid]	–	24.8	> 200	> 200	activity against amastigote forms of L. (V.) braziliensis (in words) [2]: showed activity; toxicity to Vero cells (in words) (Vero cells; MTT): low toxicity; toxicity to THP-1 cells (in words) (THP-1 cells; MTT): low toxicity
C[C@@H]1[C@H](O)[C@@H](C)/C=C/C=C/C=C/C=C/C=C/C=C/C=C/[C@H](O[C@@H]2O[C@H](C)[C@@H](O)[C@H](N)[C@@H]2O)C[C@@H]2O[C@](O)(C[C@@H](O)C[C@@H](O)[C@H](O)CC[C@@H](O)C[C@@H](O)CC(=O)O[C@H]1C)C[C@H](O)[C@H]2C(=O)O [Amphotericin B, reference compound]	0.02 to 0.06	0.12	18.2	12	–
C=C1[C@@H](C)[C@H]2[C@H](Cc3ccccc3)NC(=O)[C@]23[C@H](OC(C)=O)/C=C/[C@@](C)(O)C(=O)[C@@H](C)C/C=C/[C@H]3[C@@H]1O [Compound 7, (+)-cytochalasin D]	–	72.6	–	–	effect on Leishmania attachment and intracellular amastigote load in macrophages (in words) [3]: reduce the attachment of Leishmania promastigotes and the intracellular amastigote load; IC50 (Vero cells): > 200 µM; IC50 (THP-1 cells; THP-1, 72 h): > 200 µM
CC(C)[C@H]1CC[C@H]2COC(=O)[C@H]2[C@@H]1/C=C(\CO)C(=O)O [Compound 6, xylaric acid D]	–	> 200	> 200	> 200	activity against amastigote forms of L. (V.) braziliensis (in words) [2]: activity against L. (V.) braziliensis was lost
CC(=O)OCCCCC/C=C(/C(=O)O)[C@H](C)C(=O)O [Compound 2, (+)-6′-acetoxy-piliformic acid]	–	28.3	> 200	> 200	toxicity to Vero cells (in words) (Vero cells; MTT): low toxicity; toxicity to THP-1 cells (in words) (THP-1 cells; MTT): low toxicity
CC(C)[C@H]1CC[C@@]2(CO2)[C@H]2C(=O)OCC(C(=O)O)=C[C@H]12 [heptelidic acid]	–	–	–	–	activity in vivo (in words) (tumour xenographs): very modest activity in vivo
CCCCCCCCCCCCCCCCOP(=O)([O-])OCC[N+](C)(C)C [miltefosine]	0.8 to 5.4	–	–	–	–
CCCCC/C=C(/C(=O)O)[C@H](C)C(=O)O [Compound 4, (+)-piliformic acid]	–	78.5	> 200	> 200	IC50 BC-1 human breast cancer cells [4]: 5 µg/mL (≈ 23.3 µM); activity against A549 cells (in words) (A549 cells): inactive; selectivity index (SI) (Vero cells): 2.5; activity against Plasmodium falciparum (3D7) (in words) [5]: inactive; IC50 KB cells (KB cells): 13 µg/mL (≈ 60.7 µM)
CC(=O)O[C@@]1(CO)CC[C@H](C(C)C)[C@H]2C=C(C(=O)O)COC(=O)[C@@H]21 [Compound 1, (+)-(5aS,6R,9S,9aS)-9-(acetyloxy)-9-(hydroxymethyl)-1-oxo-6-(propan-2-yl)-1,3,5a,6,7,8,9,9a-octahydro-2-benzoxepine-4-carboxylic acid]	–	21.4	> 200	> 200	activity against amastigote forms of L. (V.) braziliensis (in words) [2]: active; selectivity index (SI) (Vero cells): 9.3; toxicity to Vero cells (in words) (Vero cells; MTT): low toxicity; toxicity to THP-1 cells (in words) (THP-1 cells; MTT): low toxicity
N=C(N)c1ccc(OCCCCCOc2ccc(C(=N)N)cc2)cc1 [Pentamidine, pentamidine]	–	–	–	–	Log P [E] [6]: 4
C=CCCC/C=C(/C(=O)O)[C@H](C)C(=O)O [Compound 3]	–	> 200	> 200	> 200	activity against amastigote forms of L. (V.) braziliensis (in words) [2]: not active
Meglumine antimoniate	178 to 330	–	–	–	–
18-des-hydroxy cytochalasin H	–	–	–	–	IC50, viability of L. amazonensis promastigotes [7]: 9.2 µg/mL
CC[C@H]1OC(=O)[C@H](C)[C@@H](O[C@H]2C[C@@](C)(OC)[C@@H](O)[C@H](C)O2)[C@H](C)[C@@H](O[C@@H]2O[C@H](C)C[C@H](N(C)C)[C@H]2O)[C@](C)(O)C[C@@H](C)CN(C)[C@H](C)[C@@H](O)[C@]1(C)O [azithromycin]	5.7	–	–	–	–
